In PubChem BioAssay AID1996:
Values after ≈ are worked out from the molar mass of the structure shown.

Conditions: buffer; pH 7.4; 200.0 µM

SMILES	solubility kinetic
NS(=O)(=O)c1ccc(CCNC(=O)c2ccc3c(c2)OCO3)cc1	> 52.3 µg/mL
Cc1ccc(NC(=O)N2CCCCCC2)cc1	> 34.8 µg/mL
COc1ccc(NS(=O)(=O)c2ccc(N3CCCCC3)c(NC(=O)C(C)NC(N)=O)c2)cc1 (configuration not stated)	> 71.3 µg/mL
CCn1c(NCc2ccc(OC)cc2)nc2ccccc21	> 42.2 µg/mL
CN(Cc1cccnc1)C(=O)CCCc1c[nH]c2ccccc12	44.5 µg/mL (≈ 145 µM)
Cn1c(N)c(C(=O)COC(=O)/C=C/c2ccc(Cl)cc2Cl)c(=O)n(C)c1=O	2.9 µg/mL (≈ 7.03 µM)
CC(=O)c1c(C)oc2ccc(NS(=O)(=O)c3ccc(F)cc3C)cc12	< 0.8 µg/mL
Cc1ccc(N2C(=O)C3C4C=CC(CC4)C3C2=O)c([N+](=O)[O-])c1 (configuration not stated)	17.7 µg/mL (≈ 56.7 µM)
Oc1ccc(Nc2nc(-c3ccccc3)nc3ccccc23)cc1	2.3 µg/mL (≈ 7.34 µM)
O=C(O)[C@@H]1Cc2ccccc2N1	6.6 µg/mL (≈ 40.4 µM)
CCN1CCN(c2oc(-c3ccc([N+](=O)[O-])cc3)nc2C#N)CC1	4 µg/mL (≈ 12.2 µM)
CCc1ccc(S(=O)(=O)N2CCN(C(=O)c3cccnc3)CC2)cc1	> 53.9 µg/mL
Cc1cc2oc(=O)cc(Cn3ccnc3)c2cc1Cl	34.3 µg/mL (≈ 125 µM)
O=C(NCC(c1cccs1)N1CCOCC1)c1cnc(Cl)c(Cl)c1 (configuration not stated)	> 57.9 µg/mL
COc1ccccc1C1CCN(c2ccc(CO)cc2[N+](=O)[O-])CC1	7.8 µg/mL (≈ 22.8 µM)
Cc1cc(C)cc(C(=O)NCCN2CCOCC2)c1	> 39.4 µg/mL

SMILES	solubility kinetic
CN(C)CCOC(=O)NCC12CC3CC(CC(C3)C1)C2.Cl	> 47.5 µg/mL
CNC(=O)COC(=O)CNC(=O)c1cc(Cl)cc([N+](=O)[O-])c1	> 49.5 µg/mL
Cc1cc(C)cc(NC(=S)N2CCC(NC(=O)C3CC3)CC2)c1	> 49.7 µg/mL
CCOC(=O)c1ccc(NC2=CC(=O)CC(c3ccco3)C2)cc1 (configuration not stated)	9.6 µg/mL (≈ 29.5 µM)
O=C(COC(=O)CNC(=O)c1ccccc1F)NC1CC1	> 44.1 µg/mL
N#Cc1ccc(-c2cn3c(n2)SCC3)cc1	> 34.1 µg/mL
CCc1ccc(C(N)=S)cc1	> 24.8 µg/mL
CC(C)CNP(=S)(c1ccccc1)C(C)(C)C (configuration not stated)	1.7 µg/mL (≈ 6.31 µM)
COc1ccccc1N1C(N)=NC(N)=NC12CCCCC2.Cl	> 48.6 µg/mL
COC(=O)c1cc(C(=O)Nc2nc3ccccc3[nH]2)cc([N+](=O)[O-])c1	1.1 µg/mL (≈ 3.23 µM)
Cc1ccc2c(c1)/C(=C/c1ccccc1C)C(=O)N2	2.8 µg/mL (≈ 11.2 µM)
Cc1cccnc1NC(=O)CNC(=O)c1cccs1	> 41.3 µg/mL
Cc1ccccc1OCC(=O)Nc1ccc([N+](=O)[O-])cc1	0.4 µg/mL (≈ 1.4 µM)
CCCN1CCN(CC(=O)Nc2nnc(CC)s2)CC1	> 44.6 µg/mL
N/C(=N\OC(=O)C1CCCCC1)c1ccc(Cl)cc1	8.1 µg/mL (≈ 28.9 µM)
Cc1cccc(NC(=S)N(CCN(C)C)C(C)c2cccnc2)c1 (configuration not stated)	> 51.4 µg/mL

More lines, now with the values ahead:

solubility kinetic	SMILES
24.1 µg/mL (≈ 88.8 µM)	Cc1[nH]c2ccccc2c1C(=O)COC(=O)C1CCC1
18.3 µg/mL (≈ 67 µM)	COc1ccccc1COC(=O)N/C=C/c1ccco1
> 51.4 µg/mL	C=C(C)CN(CC)Cc1c(C(=O)N(C)CCCC)nc2ccccn12
> 35.7 µg/mL	CCCOc1nc(C)cc(COC)c1C(N)=O
24.3 µg/mL (≈ 69.5 µM)	CCOc1ccc(S(=O)(=O)NCc2ccc3c(c2)OCO3)cc1C
36.6 µg/mL (≈ 130 µM)	CCn1c(C)c(C(=O)c2ccccc2)c(C#N)c1C(=O)O
> 49.2 µg/mL	O=C(Cc1ccccc1)NCC(=O)OCc1cccc([N+](=O)[O-])c1
42.5 µg/mL (≈ 146 µM)	CCOC(=O)NC(=O)CSc1ccc2ccccc2n1
< 0.3 µg/mL	Cc1cc(C)c2c(N)c(C(=O)c3ccccc3)sc2n1
> 32.1 µg/mL	Cc1cc(C)n2nc(-c3ccco3)nc2n1
13.5 µg/mL (≈ 49 µM)	COc1ccc(C(=O)Cn2cc([N+](=O)[O-])nc2C)cc1
> 44.6 µg/mL	CCc1noc(C)c1C(=O)NCCc1c[nH]c2ccccc12
14.5 µg/mL (≈ 42.5 µM)	Cc1cccc(C(=O)OCC(=O)NCc2ccc3c(c2)OCO3)c1C
31.3 µg/mL (≈ 134 µM)	NC(=O)c1sc2nc3c(cc2c1N)CCC3
11.5 µg/mL (≈ 33.4 µM)	CCOC(=O)c1csc(NC(=O)c2cc(=O)c3ccccc3o2)n1
